Earlier results, collected in US7816404B2, “Methods for the preparation and use of ferric pyrophosphate citrate chelate compositions” (Rockwell Medical Technologies, Inc., priority 2007, dated 2010).

Details: stability constant with ferric ion

SMILES: O=C(O)CC(O)(CC(=O)O)C(=O)O [citrate]
- log Kstab for ferric ion: 12

SMILES: O=P(O)(O)OP(=O)(O)O [pyrophosphate]
- log Kstab for ferric ion: 22.2
